The numbers were not newly measured in patent US9539278B2, “Preparation for use of aspartate and vitamin B12 or biotin for regulating ketone bodies” (N.V. Nutricia, priority 2004, dated 2017), which cites them from elsewhere.

The data set concerns blood ketone body concentrations. To be noted: rats, after consumption of high doses of alanine.

Structures are written as SMILES.

Consider `C[C@H](N)C(=O)O` [alanine], for which the “blood levels of ketone bodies” value is on record as “decreased”.
